The series can be described thus: Gelation of acyline in pH 6.8 buffer with sodium caprate and Tween 80 (filtration, HPLC). Type of series: physicochemical. How it is done: Different concentrations of acyline composition are prepared by adding acyline to pH 6.8 buffer solution either at room temperature or 37° C. All acyline solutions contain 0.6 mg/mL sodium caprate (sodium caprate is referred as C10 in the figures). All samples are centrifuged and filtered prior to analysis. Samples are analyzed by reverse phase HPLC with UV detection. 10 mg acyline is transferred into […] volumetric flask. A pH 6.8 buffer solution is preheated to 37° C. Then, 100 mL pre-heated buffer solution and 0.6 mg/mL sodium caprate is added to the flask to prepare a 0.1 mg/mL acyline sample. In a similar manner, Tween 80 is added to prepare a 0.1 mg/mL acyline solution with 1% Tween 80. Samples are shaken in a temperature controlled water bath at 37° C. 5 mL samples are taken at 1, 5, 10, 15, 20, 30 and 120 minutes after mixing acyline with the buffer solution. Samples are filtered immediately through 0.45 μm filters and the first 3 mL is discarded. Filtered samples are analyzed, undiluted, by reverse phase HPLC with UV detection. All samples are prepared in duplicate and the concentration was obtained for the analysis from the mean of the duplicates. The result of comparison of 1% and 0% Tween 80 at 0.1 mg/mL acyline sample is graphically recorded in FIG. 5. […] A similar experimental procedure as Example 4 is used to prepare acyline sample for example 5. The result of comparison of 5 mg/mL, 1.0 mg/mL, 0.1 mg/mL, and 0.1% Tween in phosphate buffer containing 0.6 mg/mL of sodium caprate and 0.1 mg/mL acyline is graphically recorded in FIG. 6. […] A similar experimental procedure as Example 4 is used to prepare acyline sample for example 6. The result of comparison of 1% and 1 mg/mL Tween 80 in 0.1 and 0.01 mg/mL acyline sample is graphically recorded in FIG. 7. […] A similar experimental procedure as Example 4 is used to prepare acyline sample for example 7. The result of comparison of 0.01 mg/mL acyline samples having 0.1%, 0.5% and 1% Tween 80 is graphically recorded in FIG. 8.

Results on one compound are retold here after patent publication US20090280169A1, “Compositions of peptides and processes of preparation thereof” (Merrion Research III Limited, priority 2008, published 2009).

“Also recorded” adds a separate entry of the source. Non-standard residues stand in square brackets, D forms with d. Residues, ends and D or L forms follow the SMILES beside them. dPhe(4-NH2) = Nc1ccc(C[C@@H](N)C(=O)O)cc1; dPhe(4-Cl) = N[C@H](Cc1ccc(Cl)cc1)C(=O)O; Phe(4-NH2) = Nc1ccc(C[C@H](N)C(=O)O)cc1; d2Nal = N[C@H](Cc1ccc2ccccc2c1)C(=O)O; Lys(iPr) = CC(C)NCCCC[C@H](N)C(=O)O; d3Pal = N[C@H](Cc1cccnc1)C(=O)O

In the case of `CC(=O)Nc1ccc(C[C@H](NC(=O)[C@H](CO)NC(=O)[C@@H](Cc2cccnc2)NC(=O)[C@@H](Cc2ccc(Cl)cc2)NC(=O)[C@@H](Cc2ccc3ccccc3c2)NC(C)=O)C(=O)N[C@H](Cc2ccc(NC(C)=O)cc2)C(=O)N[C@@H](CC(C)C)C(=O)N[C@@H](CCCCNC(C)C)C(=O)N2CCC[C@H]2C(=O)N[C@H](C)C(N)=O)cc1` [acyline, Ac-D2Nal-D4Cpa-D3Pal-Ser4Aph(Ac)-D4Aph(Ac)-Leu-ILys-Pro-DAla-NH2] (Ac-[d2Nal][dPhe(4-Cl)][d3Pal]S[Phe(4-NH2)](Ac)[dPhe(4-NH2)](Ac)L[Lys(iPr)]P[dA]-NH2), the gelation of acyline result by setting is: (0.01 mg/mL acyline, 0.6 mg/mL sodium caprate, 1% Tween 80) “significantly reduces the gelation”; (0.1 mg/mL acyline, 0.6 mg/mL sodium caprate, 1% Tween 80) “successfully reduces the gelation; also recorded: completely inhibit the gelation”; (0.1 mg/mL acyline, 37° C., 0.6 mg/mL sodium caprate alone (0% Tween 80)) “insufficient to reduce the gelation”.
